Source: the NIST ThermoML archive (doi:10.1016/j.tca.2010.01.021)

Test: molar heat capacity at constant pressure
Conditions: 101.33 kPa, Crystal, Small (less than 1 g) adiabatic calorimetry

N.O=C(O)c1ccccc1 [ammonium benzoate]
Conditions | molar heat capacity at constant pressure [J/K/mol]
80.23 K | 65.17
81.77 K | 66.19
84.03 K | 67.46
86.2 K | 68.89
88.38 K | 69.94
90.56 K | 71.51
92.57 K | 72.72
94.64 K | 74.19
96.64 K | 75.8
98.62 K | 77.01
100.55 K | 78.03
102.41 K | 79.33
104.34 K | 80.86
106.2 K | 81.8
107.97 K | 83.16
109.83 K | 84.27
111.6 K | 85.3
113.37 K | 86.37
115.15 K | 87.62
116.84 K | 88.74
118.61 K | 90.01
120.31 K | 91.47
122.97 K | 92.89
126.27 K | 94.89
129.18 K | 96.99
132.16 K | 98.85
135.06 K | 100.95
138.04 K | 102.77
141.02 K | 104.57
144.01 K | 106.24
147 K | 108.24
149.93 K | 110.5
152.9 K | 112.26
155.86 K | 113.91
158.85 K | 116.09
161.8 K | 118.15
164.77 K | 120.01
167.74 K | 121.97
170.72 K | 124.05
173.71 K | 125.52
176.67 K | 127.13
179.65 K | 129.42
183.76 K | 131.94
187.79 K | 134.2
190.78 K | 136.42
193.75 K | 138.62
196.71 K | 140.39
199.69 K | 142.17
202.71 K | 144.2
205.7 K | 146.13
208.67 K | 148.09
211.63 K | 149.94
214.62 K | 152.01
217.63 K | 153.98
220.61 K | 155.64
223.59 K | 157.46
226.57 K | 159.31
229.56 K | 161.33
232.46 K | 163.12
235.52 K | 164.85
238.67 K | 166.71
242.46 K | 169.25
246.17 K | 170.85
249.15 K | 172.58
252.13 K | 174.29
255.04 K | 176.25
258.02 K | 177.81
261.08 K | 179.36
264.07 K | 180.92
267.13 K | 182.91
270.11 K | 184.57
273.1 K | 186.5
276.05 K | 188.1
279 K | 189.37
281.97 K | 190.96
284.95 K | 192.56
287.93 K | 194.07
291 K | 195.71
293.98 K | 197.29
296.96 K | 199.56
299.95 K | 200.88
302.93 K | 203.11
305.83 K | 204.55
308.82 K | 205.93
311.72 K | 207.7
314.7 K | 209.41
317.68 K | 210.92
320.75 K | 212.63
323.73 K | 214.01
326.71 K | 215.52
329.78 K | 216.96
332.76 K | 218.8
335.75 K | 220.31
338.73 K | 222.08
341.71 K | 223.72
344.61 K | 225.36
347.6 K | 226.81
350.5 K | 228.38
353.48 K | 229.7
356.55 K | 231.21
359.53 K | 232.72
362.59 K | 234.1
365.58 K | 235.61
368.56 K | 237.58
371.54 K | 239.09
374.53 K | 240.86
377.51 K | 242.44
380.49 K | 243.95
383.4 K | 245.72
386.3 K | 247.56
389.28 K | 249.39
392.35 K | 251.17
395.33 K | 252.68
398.31 K | 254.12
